Measurements taken from PubChem BioAssay (NCI).
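Cells were grown in 96-well plates and exposed to each compound for 48 hours at five concentrations; endpoints were interpolated linearly between bracketing concentrations, or set to the highest concentration if not reached. GI50 marks 50% less growth. TGI: total growth inhibition.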

Assays:
Experiment in all cases: NCI tumour cell line growth inhibition, 48 h
[1] = test system: 786-0 renal
[2] = test system: A498 renal
[3] = test system: CAKI-1 renal
[4] = test system: HL-60(TB) leukemia
[5] = test system: NCI-H460 lung
[6] = test system: OVCAR-4 ovarian
[7] = test system: OVCAR-8 ovarian
[8] = test system: SK-MEL-28 melanoma
[9] = test system: DU-145 prostate
[10] = test system: MDA-MB-435

SMILES | TGI [1] | TGI [2] | TGI [3] | TGI [4] | TGI [5] | TGI [6] | TGI [7] | TGI [8] | GI50 [1] | GI50 [3] | GI50 [9] | TGI [9] | GI50 [10] | TGI [10] | GI50 [5] | GI50 [6] | GI50 [7] | GI50 [8] | GI50 [2] | GI50 [4]
CNCc1cc(OC)ccc1-c1ccc(OC)c(OC)c1OC | > 100 µM | > 100 µM | > 100 µM | > 100 µM | > 100 µM | > 100 µM | > 100 µM | > 100 µM | – | – | – | – | – | – | – | – | – | – | – | –
COc1ccc(C(=O)c2cc(OC)c(OC)c(OC)c2)cc1/C=C/C(=O)c1ccc(OC)c(OC)c1 | > 100 µM | – | > 100 µM | – | > 100 µM | > 100 µM | > 100 µM | > 100 µM | 4.71 µM | 0.829 µM | 2.21 µM | > 100 µM | 2.29 µM | > 100 µM | 2.43 µM | 1.95 µM | 1.85 µM | 4.59 µM | – | –
CC1SC2=NC3=C(c4ccccc4C3=O)C(c3ccc(Cl)cc3)N2C1=O (stereo unspecified) | > 100 µM | > 100 µM | > 100 µM | > 100 µM | > 100 µM | > 100 µM | > 100 µM | > 100 µM | – | – | – | – | – | – | – | – | – | – | – | –
CC(=O)c1cc(C(=O)c2ccc3c(c2)Sc2ccccc2N3)c2c(C)cc(C)cn12 | > 21.5 µM | 0.686 µM | 72.9 µM | – | – | > 100 µM | > 100 µM | > 100 µM | 0.465 µM | 0.529 µM | 0.395 µM | > 47.3 µM | 0.0468 µM | 0.237 µM | 0.311 µM | 2.2 µM | 0.405 µM | 3.64 µM | 0.0765 µM | –
CC1=NOC(=O)/C1=C/c1cccc2ccccc12 | > 100 µM | > 100 µM | > 100 µM | > 100 µM | > 100 µM | > 100 µM | > 100 µM | > 100 µM | – | – | – | – | – | – | – | – | – | – | – | –
O=C1CCC2CC(C(=O)c3ccccc3)CCC2CN1 (stereo unspecified) (tested in a mixture with another compound) | > 100 µM | – | > 100 µM | > 100 µM | > 100 µM | > 100 µM | > 100 µM | > 100 µM | – | – | – | – | – | – | – | – | – | – | – | –
NNC(=O)CNC(=O)c1ccc(Cl)cc1Cl | > 100 µM | > 100 µM | > 100 µM | > 100 µM | > 100 µM | > 100 µM | > 100 µM | > 100 µM | – | – | – | – | – | – | – | – | – | – | – | –
CC1C[C@H](C)CC(C(O)CC2CC(=O)N(Cc3ccccc3)C(=O)C2)C1O (stereo partly specified) | > 100 µM | > 100 µM | > 100 µM | > 100 µM | > 100 µM | > 100 µM | > 100 µM | > 100 µM | – | – | – | – | – | – | – | – | – | – | – | –
O=C(c1ccccc1)[C@H]1Nc2ccc(Cl)cc2C2c3ccccc3CC21 (stereo partly specified) | > 100 µM | – | > 100 µM | – | > 100 µM | 50.9 µM | > 100 µM | 97 µM | – | – | – | – | – | – | – | – | – | – | – | –
CC1(C)C(O)C[C@@H](O)[C@@]2(C)C1CC[C@]1(C)C2C[C@@H](O)[C@@H]2C([C@@]3(C)CC[C@@H](C(C)(C)O)O3)CCC21C (stereo partly specified) | 30.1 µM | 34.9 µM | 42.1 µM | > 55 µM | 35.9 µM | 37.9 µM | 36.6 µM | 27.1 µM | – | – | – | – | – | – | – | – | – | – | – | –
C=C(C)[C@@H]1CC[C@]2(C(=O)O)CC[C@]3(C)[C@H](CC[C@@H]4[C@@]5(C)C[C@@H](CC#Cc6ccc(C(F)(F)F)cc6)[C@H](O)C(C)(C)[C@@H]5CC[C@]43C)[C@@H]12 | 21.9 µM | > 100 µM | > 100 µM | > 100 µM | > 100 µM | – | > 100 µM | – | 3.2 µM | 2.63 µM | 3.52 µM | > 100 µM | – | – | 3.38 µM | – | 3.55 µM | – | 3.16 µM | 6.2 µM
COc1ccc(C2CC(c3cc(C)ccc3O)=NC(N)=N2)cc1 (stereo unspecified) | > 100 µM | > 100 µM | > 100 µM | > 100 µM | > 100 µM | > 100 µM | > 100 µM | > 100 µM | – | – | – | – | – | – | – | – | – | – | – | –
CC1COc2c(N3CCN(C)CC3)c(F)cc3c(=O)c(C(=O)O)cn1c23 (stereo unspecified) | > 100 µM | > 100 µM | > 100 µM | – | > 100 µM | > 100 µM | > 100 µM | > 100 µM | > 100 µM | > 100 µM | > 100 µM | > 100 µM | > 100 µM | > 100 µM | > 100 µM | > 100 µM | > 100 µM | > 100 µM | > 100 µM | –
Cc1cc2c(cc1C)[n+](=O)c(C(=O)C/C(=N/OCCCc1ccccc1)C(=O)Nc1cc(Cl)ccc1Cl)c(C)n2[O-] | > 100 µM | > 100 µM | > 100 µM | > 100 µM | > 100 µM | > 100 µM | > 100 µM | > 100 µM | – | – | – | – | – | – | – | – | – | – | – | –
Oc1ccc(O)c(-c2cn3ccsc3n2)c1 | 15 µM | 84.5 µM | 4.99 µM | – | 31.4 µM | – | 67.1 µM | – | 4.04 µM | 2.18 µM | – | – | 11.2 µM | 23.7 µM | 13.6 µM | – | 19.6 µM | – | 47 µM | –
N#Cc1c2c(c(N=P(c3ccccc3)(c3ccccc3)c3ccccc3)n3c1nc1ccccc13)CCCC2 | > 100 µM | 73.2 µM | > 100 µM | 24.8 µM | 56.5 µM | > 100 µM | > 100 µM | > 100 µM | – | – | – | – | – | – | – | – | – | – | – | –
N/N=C(\C(=O)Nc1ccc(Cl)cc1Cl)C(c1cnc2ccccc2n1)[N+](=O)[O-] (stereo unspecified) | > 100 µM | > 100 µM | > 100 µM | > 100 µM | > 100 µM | > 100 µM | > 100 µM | > 100 µM | – | – | – | – | – | > 100 µM | – | – | – | – | – | –
CC1CC(=O)Nc2ccccc2N1C(=O)CN1CCC(CCCCN(C)C)CC1 (stereo unspecified) | > 100 µM | > 100 µM | > 100 µM | > 100 µM | > 100 µM | > 100 µM | > 100 µM | > 100 µM | – | – | – | – | – | – | – | – | – | – | – | –
CC[P+](C)(C)c1ccccc1 | > 100 µM | > 100 µM | > 100 µM | – | > 100 µM | > 100 µM | > 100 µM | > 100 µM | – | – | – | – | – | – | – | – | – | – | – | –
CCCCCCCCOCC(O)COC(=O)CCCCCCC (stereo unspecified) | > 100 µM | > 100 µM | > 100 µM | 93.9 µM | > 100 µM | > 100 µM | > 100 µM | > 100 µM | – | – | – | – | – | – | – | – | – | – | – | –
NC(N)=N/N=C/c1c(-c2cc(Cl)sc2Cl)nc2sccn12 | 1.79 µM | 10.2 µM | 16.3 µM | – | 4.4 µM | – | 2.84 µM | – | 0.924 µM | 7.65 µM | – | – | 4.03 µM | 15.1 µM | 1.43 µM | – | 1.04 µM | – | 1.54 µM | –
